The values that follow come from US20250255876A1, “COMPOSITIONS AND METHODS FOR CANCER TREATMENT” (ARIEL SCIENTIFIC INNOVATIONS LTD., priority 2021, published 2025).

The subject of test [1] is γH2AX foci in H1975 cells. Nature of the test: γH2AX foci immunofluorescence, H1975 cells. Particulars: for number of γH2AX foci/cell, combined treatment: overnight. Format: cell-based, human. The procedure:
H1975 and A549 cells were grown on glass coverslips in 12-well plates with the appropriate media, and fixed in 4% paraformaldehyde for 10 minutes at room temperature. Cells were permeabilizedin 0.5% TritonX100 in PBS×1 for 10 minutes at room temperature and then blocked in 5% BSA in 0.1% PBS×1-Tween for 1 hour at room temperature. Anti-phospho-Histone H2A.X primary antibody ([…]; 05-636-25UG) diluted 1:400 in 5% BSA in 0.1% PBS×1-Tween was added for 1 hour at room temperature. Fluorescent-dye conjugated secondary antibody was applied for 1 hour at room temperature. The coverslips were washed between each step with PBS×1. Nuclei were stained with DAPI (1:2000 dilution) at room temperature in the dark for 3 minutes. Coverslips were mounted on glass slides and imaged using an Olympus 1×81 microscope. For all treatments, cells with fewer than 80 foci were scored manually (FIG. 4B), and cells with more than 80 foci and very bright signals were scored automatically by using the “Analyze Particles” function in ImageJ (National Institutes of Health) after setting a suitable threshold.
Next, the inventors examined whether combined treatment of cisplatin with c #2 or c #3 correlates with an increase in DNA damage, which might explain the compound's sensitization effect. A549 and H1975 cell lines were exposed to combined overnight treatment with cisplatin and c #2 or c #3, and the levels of γH2AX foci were monitored. In both cell lines, a clear increase in the number of foci was observed after combined treatment, compared to cells treated with cisplatin or compounds alone (FIG. 12A).
Combined treatment of cisplatin with c #3 correlates with an increase in DNA damage. Levels of γ-H2AX foci, a marker for DNA double-strand breaks, were compared in H1975, A549 and B16F10 cell lines.

A further test concerns the target MAD2L2-Rev1 complex (Homo sapiens, UniProt Q9UI95). Put plainly: GFP-Trap co-immunoprecipitation of YFP-Rev1 and myc-MAD2L2 in HEK293 cells. The conditions noted are these: 50 μM; for reduction of MAD2L2-Rev1 binding (complex formation): 24 h. Format: cell-based. The arrangement: expressed in transfected cells; host or cells: HEK293. The method, then:
HEK293 cells were plated in 10-cm plates at 40-50% confluency. The next day, the cells were co-transfected with YFP-Rev1 and myc-MAD2L2 plasmids. After 24 hours, 50 µM inhibitor compounds (or DMSO negative control) were applied to the cells and growth continued for another 24 hours. The cells were then harvested and protein extraction was performed, followed by IP pulldown of the YFP-Rev1 species with GFP-Trap A conjugated agarose beads, to assess the levels of Co-IP'ed myc-REV7.
Medium/DMEM (Biological Industries Israel Beit Haemek; 01-052-1A) with 4.5 g/l D-glucose, 4 mM L-glutamine, 10% fetal bovine serum (Biological Industries Israel Beit Haemek; 04-007-1A), and 1% penicillin/streptomycin. The H1975 cells were cultured in RPMI 1640 medium (Biological Industries Israel Beit Haemek; 01-100-1A) with 4.5 g/l D-glucose, 4 mM L-glutamine, 10% fetal bovine serum (Biological Industries Israel Beit Haemek; 04-007-1A), and 1% penicillin/streptomycin. Transfections of HEK293 cells with plasmid DNA were performed using the Avalanche® Everyday Transfection Reagent (EZT-EVDY-1); according to the manufacturer's protocol. Briefly, cells were passaged the day before transfection to reach a confluency of 60-70%. The next day, the selected plasmid DNA was incubated in serum-free media with the recommended volume of transfection reagent for 20 minutes at room temperature. This transfection mix was gently added to the prepared cell culture plate(s) for continued incubation at 37° C. For co-IP experiment plates, after 24 hours, the relevant compound (DMSO vehicle, c #2, or c #3) was added in pre-warmed media, and the transfected plates were incubated for another 24 hours at 37° C. until harvesting.
HEK293 cells were harvested 48 h following co-transfection and lysed in extraction buffer (50 mM Tris pH 8, 150 mM NaCl, 20 mM EDTA, 50 mM NaF, 1% TritonX) supplemented with Merck® 1000×protease inhibitor (539134). Cells were lysed on ice for 30 minutes and centrifuged at 20,000 g for 30 minutes at 4° C. For immunoblotting, extracts were boiled in Laemmli buffer for 5 min. Equal amounts of protein sample (30 μg) were loaded on 8%-12% acrylamide gel and transferred to a nitrocellulose membrane (Amersham). For immunoprecipitations, clarified lysates were supplemented with 7 μl of equilibrated GFP-Trap antibody-conjugated agarose beads (Chromotek; gta-20) and incubated for 1-2 h at 4° C. Beads were washed three times in PBS buffer and boiled in Laemmli buffer for 5 minutes. The following primary antibodies were used for immunoblotting: Myc (Santa Cruz; SC-40) 1:1000 dilution, GFP (Santa Cruz, SC-9996) 1:1000 dilution, MAD2L2 (ProteinTech; 12683-1-AP). […]

Setting [2] is: H1975, 5 μM cisplatin + 50 μM compound.

Chain of MAD2L2-Rev1 complex (Q9UI95 whole entry, one chain of several): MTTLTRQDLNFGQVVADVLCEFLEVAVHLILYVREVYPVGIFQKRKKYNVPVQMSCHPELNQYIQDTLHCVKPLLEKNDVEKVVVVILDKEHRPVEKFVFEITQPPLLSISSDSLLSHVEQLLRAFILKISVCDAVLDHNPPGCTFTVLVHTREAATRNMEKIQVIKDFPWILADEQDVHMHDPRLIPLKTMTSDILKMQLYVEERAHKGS

On to `CNc1nc(N2CCCCC2)nc(-n2cnc(SCC(N)=O)n2)n1` [Compound 2], for which the “number of γH2AX foci/cell, combined treatment” value in test [1] (setting [2]) was “significant increase in the number of γH2AX foci/cell”. Moreover, at MAD2L2-Rev1 complex, the “Rev1-Rev7 binding interaction (in words)” value is “reduction in Rev1-Rev7 binding interaction” and the “reduction of MAD2L2-Rev1 binding (complex formation)” value is “about 50%”.
Consider `Cc1oc(-c2ccco2)nc1CC(=O)N[C@@H](C(=O)O)c1ccccc1` [Compound 3], for which the “increase in γ-H2AX foci/cell in co-treated cells” value in test [1] (H1975, 5 μM cisplatin + 50 μM c #3, 16 h) was found to be 2 fold. Besides, in test [1] (setting [2]), the “cells with more than 80 foci or very bright signal, combined treatment” value was “significantly more abundant” and the “number of γH2AX foci/cell, combined treatment” value is “significant increase in the number of γH2AX foci/cell”. The “γ-H2AX signal, c #3 alone” value in test [1] (H1975, c #3 alone) is “no effect on the γ-H2AX signal”. For the same compound, at MAD2L2-Rev1 complex, the “Rev1-Rev7 binding interaction (in words)” value is recorded as “reduction in Rev1-Rev7 binding interaction” and the “reduction of MAD2L2-Rev1 binding (complex formation)” value is “about 80%”.
